≈ marks a conversion by molar mass, not a printed value. Counter-ions that a name gives are not always drawn. Like-named read-outs stand apart in the source and are kept apart here.
Legend:
A375 cells = assay: Flow cytometry (PI) G2/M accumulation and sub-G1 apoptosis, A375; type: cell-based, human; details: Homo sapiens, A-375, read-out: SEC50 (dose inducing 50% of the enhancing activity to vindesine)
Experimental: A375 and NCTC2544 adherent cells were trypsinized, mixed with floating cells, washed with PBS and permeabilised in 70% (vol/vol) ethanol/PBS solution at 4° C. for at least 24 hours. Jurkat, HeL023 and PBMC cells were centrifuged for 10 minutes at 1000×g. The cell pellet was then resuspended and permeabilised in 70% (vol/vol) ethanol/PBS solution at 4° C. for at least 24 hours. The cells were washed with PBS and the DNA was stained with a PBS solution, containing 20 μg/ml of propidium iodide and 100 μg/ml of RNAse, at room temperature for 30 minutes. Cells were analysed by FACScan (Becton-Dickinson) and the content of DNA was evaluated by the Cell-LISYS program (Becton-Dickinson). Cell distribution among cell cycle phases and apoptotic cells was evaluated as previously described (Secchiero et al., 2001). Briefly, the cell cycle distribution is shown as the percentage of cells containing 2n (G1 phase), 4n (G2 and M phases), 4n>x>2n. DNA amount (S phase) judged by propidium iodide staining. The apoptotic population is the percentage of cells with DNA content lower than 2n.
Cell proliferation and apoptosis are quantified by flow cytometer analysis after propidium-iodide (PI) DNA staining.

[1] = biological target: T1, P-gp drug efflux activity in HeL023 cells (Homo sapiens, UniProt P08183); assay: Rhodamine 123 efflux assay, HeL023 cells; type: cell-based; details: for inhibition of P-gp activity (in words): Rh123 efflux, concentrations of Table 11 (MRE3008F20 10 μM); for % of Rh123 negative cells: cells expressing P-gp activity
T1 construct: nearly all (100±1%) the cells expressing high level of functional P-gp; endogenous in cells; host or cells: HeL023 human erythroleukemia cells
Experimental: 5×10^5 cells from each subline were loaded with 50 ng/ml of rhodamine 123 for 30 minutes at 37° C. in medium. The cells were washed and resuspended in dye-staining agent free medium for 3 hours at 37° C. to allow rhodamine 123 efflux. The cells were then washed twice and the fluorescence of intracellular rhodamine 123 were analysed with Flow cytometer (residual fluorescence FRES). The fluorescence was compared with loaded cells maintained at 4° C. to prevent drug export (maximal fluorescence FMAX). […] Cells from each subline that were not being exposed to rhodamine 123 were used as negative controls.
Rhodamine 123 (Rh123) retention, a P-gp functional assay, was studied in all cell lines. This assay was performed by incubating cells with Rh123 and determining Rh123 accumulation by measuring its fluorescence. The maximum load of Rh123 (FMAX) was quantified at the end of treatment harvesting the cells and storing them at 4° C. to prevent any active Rh123 efflux . The P-gp drug efflux was allowed incubating Rh123-loaded cells in fresh new medium Rh123-free for 3 hours at 37° C. After this incubation, residual fluorescence (FRES) was measured and compared to FMAX.

[2] = biological target: T2, human A3 adenosine receptor (Homo sapiens, UniProt P0DMS8); assay: biochemical
T2 sequence (P0DMS8 1-318): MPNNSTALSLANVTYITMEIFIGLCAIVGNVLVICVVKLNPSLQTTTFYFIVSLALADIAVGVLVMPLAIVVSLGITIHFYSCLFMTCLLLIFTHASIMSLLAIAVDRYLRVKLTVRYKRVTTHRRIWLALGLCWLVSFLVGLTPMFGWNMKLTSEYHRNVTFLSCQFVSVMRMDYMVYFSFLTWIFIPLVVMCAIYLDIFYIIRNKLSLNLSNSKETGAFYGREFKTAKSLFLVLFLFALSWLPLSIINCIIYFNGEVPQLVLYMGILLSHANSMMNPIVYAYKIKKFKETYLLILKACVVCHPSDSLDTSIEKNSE

A375 melanoma cells = assay: Colony formation assay of A375 cells; type: cell-based, human; details: 7 days
Experimental: FIG. 2 illustrates colony formation assay of A375 cells. Cells were treated with different drugs and colonies were counted after 7 days. The values represent the mean ±SEM of four independent experiments. D=DMSO (control); T=paclitaxel, 0.75 ng/ml; M=MRE 3008F20, 10 μM; C=CI-IB-MECA, 10 μM; TM=paclitaxel plus MRE 3008F20; TC=paclitaxel plus CI-IB-MECA treated cells. *P<0.01 TM versus T. Analysis was by ANOVA followed by Dunnett's test.;
Control plates received the same volume of DMSO alone. After 7 days of growth at 37° C. in humidified atmosphere containing 5% CO2, the cells were fixed with absolute methanol for 5′ and stained with 1/10 Giemsa/phosphate-buffered saline (PBS) staining solution for 10 minutes. Staining solution was removed and colonies of greater than 30 cells were scored as survivors. For each treatment, six individual wells were scored.
Colony formation assay experiments were performed on A375 melanoma cells treated with increasing concentration of paclitaxel (0.25-75 ng/ml). A3 stimulation is achieved with the selective agonist CI-IB-MECA while A3 blockade is obtained with the selective antagonist MRE 3008F20. […] (FIG. 2)

[3] = tested on: human melanoma A375 cell line; assay: MTT growth inhibitory assay, A375; type: cell-based
[4] = tested on: human colon carcinoma HT29 cell line; assay: MTT growth inhibitory assay, HT29; type: cell-based; details: for IC50: HT-29; for fold HT29 more refractory than A375: ratio of IC50 HT29 vs A375
[5] = tested on: human pancreatic cancer Panc-1; assay: MTT growth inhibitory assay, Panc-1; type: cell-based; details: for IC50: Human Pancreatic Cancer Panc-1, read-out: IC50 growth inhibition, agent used separately
[6] = tested on: human lung carcinoma SKMES; assay: MTT growth inhibitory assay, SKMES; type: cell-based
[7] = Homo sapiens, A-375, Human Melanoma A375, read-out: IC50 growth inhibition, agent used separately
[8] = Human Colon Carcinoma HT29, read-out: IC50 growth inhibition, agent used separately
[9] = Human Lung Carcinoma SKMES, read-out: IC50 growth inhibition, agent used separately
[10] = Homo sapiens, A-375, A375 cell line, read-out: IC50 value
[11] = Homo sapiens, HT29 cell line, read-out: IC50 value

T1 sequence (P08183 whole entry): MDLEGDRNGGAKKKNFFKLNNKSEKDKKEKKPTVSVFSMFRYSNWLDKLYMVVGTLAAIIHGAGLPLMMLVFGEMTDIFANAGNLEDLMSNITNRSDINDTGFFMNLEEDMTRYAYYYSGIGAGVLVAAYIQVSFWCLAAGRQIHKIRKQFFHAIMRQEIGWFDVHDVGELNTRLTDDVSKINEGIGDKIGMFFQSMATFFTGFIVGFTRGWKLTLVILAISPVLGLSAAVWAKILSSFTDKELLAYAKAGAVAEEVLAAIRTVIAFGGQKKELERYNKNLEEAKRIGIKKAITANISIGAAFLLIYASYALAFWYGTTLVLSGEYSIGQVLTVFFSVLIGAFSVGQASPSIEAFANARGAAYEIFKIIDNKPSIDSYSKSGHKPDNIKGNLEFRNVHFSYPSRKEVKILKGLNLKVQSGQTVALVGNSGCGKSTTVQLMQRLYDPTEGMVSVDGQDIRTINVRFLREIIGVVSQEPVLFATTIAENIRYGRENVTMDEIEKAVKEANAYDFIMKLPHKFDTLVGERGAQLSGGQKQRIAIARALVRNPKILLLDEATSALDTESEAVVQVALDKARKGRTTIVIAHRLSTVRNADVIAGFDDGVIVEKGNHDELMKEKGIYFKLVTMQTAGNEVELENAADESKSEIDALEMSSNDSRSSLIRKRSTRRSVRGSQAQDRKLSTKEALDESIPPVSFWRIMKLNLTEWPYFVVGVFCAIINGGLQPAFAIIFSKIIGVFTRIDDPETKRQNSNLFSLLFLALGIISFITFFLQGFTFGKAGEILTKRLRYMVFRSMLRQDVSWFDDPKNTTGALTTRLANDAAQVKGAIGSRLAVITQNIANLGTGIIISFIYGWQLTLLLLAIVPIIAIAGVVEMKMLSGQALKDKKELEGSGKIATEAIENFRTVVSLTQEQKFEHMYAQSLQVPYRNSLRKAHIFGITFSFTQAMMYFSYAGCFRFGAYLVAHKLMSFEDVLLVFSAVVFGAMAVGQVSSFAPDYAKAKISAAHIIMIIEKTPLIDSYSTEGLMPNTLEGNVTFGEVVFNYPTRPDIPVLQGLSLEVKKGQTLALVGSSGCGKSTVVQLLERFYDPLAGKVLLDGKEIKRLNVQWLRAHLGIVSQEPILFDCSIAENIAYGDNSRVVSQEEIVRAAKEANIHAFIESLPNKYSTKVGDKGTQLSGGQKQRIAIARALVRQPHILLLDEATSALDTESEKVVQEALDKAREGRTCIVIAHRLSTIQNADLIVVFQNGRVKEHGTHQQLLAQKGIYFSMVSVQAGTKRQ

## Nc1nc2ccc(Cl)cc2c2nc(-c3ccco3)nn12 [CGS 15943, 5-amino-9-chloro-2-(furyl) 1,2,4-triazolo[1,5-c]quinazoline, reference compound]
A375 cells
  EC50: 12600 ± 1410 nM
[1]
  inhibition of P-gp activity (in words): much lower effect on P-gp activity
[2]
  Ki: 118 ± 12 nM

## CNC(=O)[C@H]1O[C@@H](n2cnc3c(NCc4cccc(I)c4)nc(Cl)nc32)[C@H](O)[C@@H]1O [CI-IB-MECA]
A375 melanoma cells; 10 μM alone
  colony formation, % of DMSO control: 130%
A375 melanoma cells; 10 μM plus paclitaxel 0.75 ng/ml
  colony formation, % of control, combined with paclitaxel: 85%

## CN(C)c1ccc(NC(=O)Nc2nc3nn(C)cc3c3nc(-c4ccco4)nn23)cc1 [IL-11, N-1-(4-dimethylamino-phenyl)-N′-5-[8-methyl-2-(2-furyl)-pyrazolo[4,3-e]1,2,4-triazolo[1,5-c]pyrimidine]-urea]
[3]; A375, A3 antagonist 0.5 μg/ml
  Enhancement Factor for docetaxel: 5.3
  Enhancement Factor for paclitaxel: 3.1
[3]; A375, A3 antagonist 5 μg/ml
  Enhancement Factor for docetaxel: 6.5
[3]; A375, A3 antagonist 5 μg/ml, paclitaxel 0.0001-0.05 μg/ml
  Enhancement Factor for paclitaxel: 9.6
[3]; A375, A3 antagonist 5 μg/ml, paclitaxel 0.0002-0.1 μg/ml
  Enhancement Factor for paclitaxel: 11.5
[3]; [7]
  IC50: 49.3 ± 40.7 µg/mL (≈ 118 µM)
[3]; Homo sapiens, A-375, A375, 5 μg/ml, read-out: growth inhibition in the presence of A3 antagonist alone
  inhibition at 5 µg/mL: 30 to 45%
[4]; HT29, A3 antagonist 0.5 μg/ml
  Enhancement Factor for docetaxel: 6.4
  Enhancement Factor for doxorubicin: 1.2
  Enhancement Factor for irinotecan HCl: 1.1
  Enhancement Factor for paclitaxel: 2.5
[4]; [8]
  IC50: 56.5 ± 8.3 µg/mL (≈ 135 µM)
[5]
  IC50: 8 ± 5.7 µg/mL (≈ 19.2 µM)
[5]; Panc-1, A3 antagonist 0.5 μg/ml
  Enhancement Factor for docetaxel: 1.4
[6]; [9]
  IC50: 36.3 ± 31.5 µg/mL (≈ 87 µM)
[6]; SKMES, A3 antagonist 0.5 μg/ml
  Enhancement Factor for docetaxel: 1.9
  Enhancement Factor for irinotecan HCL: 1.9
  Enhancement Factor for paclitaxel: 4.2
  Enhancement Factor for vinblastine: 1.6

## Cc1ccc(NC(=O)Nc2nc3nn(C)cc3c3nc(-c4ccco4)nn23)cc1 [MRE 3046F20, 5-N-(4-methylphenyl-carbamoyl)amino-8-methyl-2 (2-furyl)-pyrazolo-[4,3e]-1,2,4-triazolo[1,5-c]pyrimidine]
A375 cells
  EC50: 570 ± 60 nM
[1]
  inhibition of P-gp activity (in words): strong inhibitors of P-gp activity
[2]
  Ki: 3 ± 0.3 nM

## CCCn1cc2c(nc(NC(=O)Nc3ccccc3)n3nc(-c4ccco4)nc23)n1 [MRE 3055F20, 5-N-(4-phenylcarbamoyl)amino-8-propyl-2 (2furyl)-pyrazolo[4,3e]-1,2,4triazolo-[1,5c]pyrimidine]
A375 cells
  EC50: 310 ± 30 nM
[1]
  inhibition of P-gp activity (in words): strong inhibitors of P-gp activity
[2]
  Ki: 1.4 ± 0.2 nM

## Nc1nc(NCCc2ccc(O)cc2)nc2nc(-c3ccco3)nn12 [ZM 241385, 4-(2-[7-amino-2-(2-furyl)-[1,2,4]triazolo[2,3-a][1,3,5]triazin-5-ylamino]ethyl)phenol, reference compound]
A375 cells
  EC50: 25000 ± 2230 nM
[1]
  inhibition of P-gp activity (in words): much lower effect on P-gp activity

## COc1cccc2c1C(=O)c1c(O)c3c(c(O)c1C2=O)C[C@@](O)(C(=O)CO)C[C@@H]3O[C@H]1C[C@H](N)[C@H](O)[C@H](C)O1 [doxorubicin, reference compound]
[3]; [10]
  IC50: 0.0064 µg/mL (≈ 0.0118 µM)
[4]; Homo sapiens, HT29, doxorubicin 0.0002-0.1 μg/ml, alone, read-out: IC50 of doxorubicin, A3 antagonist none
  IC50: 0.46 µg/mL (≈ 0.846 µM)
[4]; [11]
  IC50: 0.211 µg/mL (≈ 0.388 µM)
[4]
  fold HT29 more refractory than A375: approximately 30 fold

## CCCn1cc2c(nc(NC(=O)Nc3ccccc3)n3nc(-c4ccco4)nc23)n1 [drawing 9]
[1]; 10 μM
  % of Rh123 negative cells: 0.8 ± 0.2%

## CCCn1cc2c(nc(NC(=O)Nc3ccccc3)n3nc(-c4ccco4)nc23)n1 [drawing 10]
[1]; 10 μM
  % of Rh123 negative cells: 1.0 ± 0.2%

## Cc1ccc(NC(=O)Nc2nc3nn(C)cc3c3nc(-c4ccco4)nn23)cc1 [drawing 11]
[1]; 10 μM
  % of Rh123 negative cells: 22.0 ± 1.0%

## Nc1nc2ccc(Cl)cc2c2nc(-c3ccco3)nn12 [drawing 12, reference compound]
[1]; 70 μM
  % of Rh123 negative cells: 87.1 ± 1.0%

## Nc1nc(NCCc2ccc(O)cc2)nc2nc(-c3ccco3)nn12 [drawing 13, reference compound]
[1]; 70 μM
  % of Rh123 negative cells: 93.0 ± 1.1%

## CCc1c2c(nc3ccc(OC(=O)N4CCC(N5CCCCC5)CC4)cc13)-c1cc3c(c(=O)n1C2)COC(=O)[C@]3(O)CC [irinotecan HCL, reference compound]
[3]; [7]
  IC50: 0.88 ± 0.19 µg/mL
[4]; [8]
  IC50: 1.05 ± 0.07 µg/mL
[4]; Homo sapiens, HT29, irinotecan HCl 0.04-20 μg/ml, alone, read-out: IC50 of irinotecan HCl, A3 antagonist none
  IC50: 0.96 µg/mL
[5]
  IC50: 1.12 ± 0.29 µg/mL
[6]; Homo sapiens, SKMES, irinotecan HCL 0.04-20 μg/ml, alone, read-out: IC50 of irinotecan HCL, A3 antagonist none
  IC50: 1.17 µg/mL
[6]; [9]
  IC50: 1.23 ± 0.36 µg/mL

## O=C1c2c(O)ccc(O)c2C(=O)c2c(NCCNCCO)ccc(NCCNCCO)c21 [mitoxantrone, reference compound]
[3]; [10]
  IC50: 0.0032 µg/mL (≈ 0.0072 µM)
[4]; [11]
  IC50: 0.1 µg/mL (≈ 0.225 µM)
[4]
  fold HT29 more refractory than A375: approximately 30 fold

## CC[C@]1(O)C[C@@H]2CN(CCc3c([nH]c4ccccc34)[C@@](C(=O)OC)(c3cc4c(cc3OC)N(C)[C@H]3[C@@](O)(C(=O)OC)[C@H](OC(C)=O)[C@]5(CC)C=CCN6CC[C@]43[C@@H]65)C2)C1 [vinblastine, reference compound]
[3]; [7]
  IC50: 0.0016 µg/mL (≈ 0.00197 µM)
[4]; [8]
  IC50: 0.0019 ± 0.0004 µg/mL (≈ 0.00234 µM)
[5]
  IC50: 0.0018 ± 0.0008 µg/mL (≈ 0.00222 µM)
[6]; Homo sapiens, SKMES, vinblastine 0.00001-0.005 μg/ml, alone, read-out: IC50 of vinblastine, A3 antagonist none
  IC50: 0.0015 µg/mL (≈ 0.00185 µM)
[6]; [9]
  IC50: 0.0019 ± 0.0009 µg/mL (≈ 0.00234 µM)
